Assay [1] has as its target DGKζ (Homo sapiens (Human), UniProt Q13574). The experiment in a line: In vitro DGKζ inhibition assay (ADP-Glo). It counts as biochemical. The following applies: His-tagged human recombinant enzyme, 0.4 nM DGK, 30 μM ATP, 20 μM DLG, 90 minute incubation. The gist of the method:
(§1)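 His-tagged human DGKα (0.1 nM, 50 μM ATP) or DGKζ (0.4 nM, 30 μM ATP), each with 20 μM DLG, in Tris pH 7.5 buffer with CHAPS, Mg2+, Ca2+.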
Background: In ADP-Glo the light output rises with the ADP produced.

Assay [2] concerns the target DGKα (Homo sapiens (Human), UniProt P23743). In words: In vitro DGKα inhibition assay (ADP-Glo). The class given is biochemical. The following applies: His-tagged human recombinant enzyme, 0.1 nM DGKα, 50 μM ATP, 20 μM DLG, 90 minute incubation. The gist of the method: as §1

The structures appear in SMILES notation.

Chain of DGKα (P23743 whole entry): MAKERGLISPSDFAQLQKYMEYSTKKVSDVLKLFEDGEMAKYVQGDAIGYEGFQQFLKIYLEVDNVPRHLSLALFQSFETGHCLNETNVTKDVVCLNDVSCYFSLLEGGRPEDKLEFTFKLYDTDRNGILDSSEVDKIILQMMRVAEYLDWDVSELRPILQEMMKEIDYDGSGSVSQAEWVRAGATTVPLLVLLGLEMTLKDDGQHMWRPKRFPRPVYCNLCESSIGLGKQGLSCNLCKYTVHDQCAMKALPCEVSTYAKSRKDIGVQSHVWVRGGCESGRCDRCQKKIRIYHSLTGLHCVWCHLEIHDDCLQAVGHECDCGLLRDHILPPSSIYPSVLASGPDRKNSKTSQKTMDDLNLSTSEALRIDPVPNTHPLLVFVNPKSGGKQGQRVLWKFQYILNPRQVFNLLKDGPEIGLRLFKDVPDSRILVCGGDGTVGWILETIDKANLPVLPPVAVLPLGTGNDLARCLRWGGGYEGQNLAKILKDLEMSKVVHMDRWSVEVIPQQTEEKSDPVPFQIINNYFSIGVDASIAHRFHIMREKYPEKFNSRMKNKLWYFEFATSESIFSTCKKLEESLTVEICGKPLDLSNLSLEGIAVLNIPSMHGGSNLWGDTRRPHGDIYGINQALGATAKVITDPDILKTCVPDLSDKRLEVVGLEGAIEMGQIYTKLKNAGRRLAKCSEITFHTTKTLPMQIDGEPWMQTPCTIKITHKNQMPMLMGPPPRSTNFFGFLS
Chain of DGKζ (Q13574 whole entry): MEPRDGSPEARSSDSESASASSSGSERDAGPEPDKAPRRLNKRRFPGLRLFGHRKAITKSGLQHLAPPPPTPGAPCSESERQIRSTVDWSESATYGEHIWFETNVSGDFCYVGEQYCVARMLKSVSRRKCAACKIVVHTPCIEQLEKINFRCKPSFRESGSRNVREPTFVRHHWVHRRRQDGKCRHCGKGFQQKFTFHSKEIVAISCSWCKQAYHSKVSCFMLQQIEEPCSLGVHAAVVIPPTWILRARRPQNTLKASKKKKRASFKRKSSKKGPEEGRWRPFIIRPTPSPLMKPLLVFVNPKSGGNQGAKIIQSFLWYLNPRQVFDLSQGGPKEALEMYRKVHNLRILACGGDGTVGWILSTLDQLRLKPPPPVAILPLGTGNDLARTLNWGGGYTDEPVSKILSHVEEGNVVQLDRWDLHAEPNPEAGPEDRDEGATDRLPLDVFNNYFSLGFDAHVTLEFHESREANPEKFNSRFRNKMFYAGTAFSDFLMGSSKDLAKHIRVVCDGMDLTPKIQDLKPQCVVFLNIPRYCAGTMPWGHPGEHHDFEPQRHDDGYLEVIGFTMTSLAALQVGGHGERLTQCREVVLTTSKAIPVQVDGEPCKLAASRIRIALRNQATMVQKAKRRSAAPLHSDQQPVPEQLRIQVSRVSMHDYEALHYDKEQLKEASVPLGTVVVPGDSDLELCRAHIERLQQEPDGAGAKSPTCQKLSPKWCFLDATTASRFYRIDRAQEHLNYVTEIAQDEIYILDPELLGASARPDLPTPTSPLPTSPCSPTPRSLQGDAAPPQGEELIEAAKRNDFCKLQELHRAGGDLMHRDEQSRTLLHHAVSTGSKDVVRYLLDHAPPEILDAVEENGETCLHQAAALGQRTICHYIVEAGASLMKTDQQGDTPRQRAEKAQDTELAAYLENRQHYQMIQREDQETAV

`Cc1nc2c(N3C[C@@H](C)N([C@@H](c4ccc(F)c(F)c4)C4CC(F)(F)C4)C[C@@H]3C)nc3nncn3c2n1C[C@@H]1CCCO1` [Example 47, 4-((2S,5R)-4-((R)-(3,3-difluorocyclobutyl)(3,4-difluorophenyl)methyl)-2,5-dimethylpiperazin-1-yl)-2-methyl-1-(((S)-tetrahydrofuran-2-yl)methyl)-1H-[1,2,4]triazolo[3,4-b]purine]: the IC50 in assay [1] and in assay [2] was not above 20 nM throughout.

For `Cc1nc2c(N3C[C@@H](C)N([C@H](c4ccc(Cl)c(Cl)c4)C4CC(F)(F)C4)C[C@@H]3C)nc3nncn3c2n1C[C@@H]1CCCO1` [Example 48, 4-((2S,5R)-4-((S)-(3,4-Dichlorophenyl)(3,3-difluorocyclobutyl)methyl)-2,5-dimethylpiperazin-1-yl)-2-methyl-1-(((S)-tetrahydrofuran-2-yl)methyl)-1H-[1,2,4]triazolo[3,4-b]purine], the 50% inhibitory concentration (IC50) in assay [1] and in assay [2] was not above 20 nM in each case.

Consider `Cc1nc2c(N3C[C@@H](C)N([C@@H](c4ccc(Cl)c(Cl)c4)C4CC(F)(F)C4)C[C@@H]3C)nc3nncn3c2n1C[C@@H]1CCCO1` [Example 49, 4-((2S,5R)-4-((R)-(3,4-dichlorophenyl)(3,3-difluorocyclobutyl)methyl)-2,5-dimethylpiperazin-1-yl)-2-methyl-1-(((S)-tetrahydrofuran-2-yl)methyl)-1H-[1,2,4]triazolo[3,4-b]purine], for which the concentration for half-maximal inhibition (IC50) in assay [1] and in assay [2] was not above 20 nM each time.

For the compound `Cc1cc(C(C2CC(F)(F)C2)N2C[C@H](C)N(c3nc4nncn4c4c3nc(C)n4C[C@@H]3CCCO3)C[C@H]2C)ccc1Cl` (stereo partly drawn) [Example 51, 4-((2S,5R)-4-((4-Chloro-3-methylphenyl)(3,3-difluorocyclobutyl)methyl)-2,5-dimethylpiperazin-1-yl)-2-methyl-1-(((S)-tetrahydrofuran-2-yl)methyl)-1H-[1,2,4]triazolo[3,4-b]purine], the half-inhibitory concentration (IC50) in assay [1] and in assay [2] was not above 20 nM in each case.

For the compound `Cc1nc2c(N3C[C@@H](C)N(C(c4cc(F)c(F)c(F)c4)C4CC(F)(F)C4)C[C@@H]3C)nc3nncn3c2n1C[C@@H]1CCCO1` (stereo partly drawn) [Example 52, 4-((2S,5R)-4-((3,3-Difluorocyclobutyl)(3,4,5-trifluorophenyl)methyl)-2,5-dimethylpiperazin-1-yl)-2-methyl-1-(((S)-tetrahydrofuran-2-yl)methyl)-1H-[1,2,4]triazolo[3,4-b]purine], the IC50 in assay [1] and in assay [2] was not above 20 nM throughout.

As for `Cc1nc2c(N3C[C@@H](C)N(C(c4cc(F)ccc4F)C4CC(F)(F)C4)C[C@@H]3C)nc3nncn3c2n1C[C@@H]1CCCO1` (stereo partly drawn) [Example 53, 4-((2S,5R)-4-((3,3-Difluorocyclobutyl)(2,5-difluorophenyl)methyl)-2,5-dimethylpiperazin-1-yl)-2-methyl-1-(((S)-tetrahydrofuran-2-yl)methyl)-1H-[1,2,4]triazolo[3,4-b]purine], the IC50 in assay [1] and in assay [2] was not above 20 nM in each case.

For the compound `Cc1nc2c(N3C[C@@H](C)N(C(c4ccc(F)c(C(F)F)c4)C4CC(F)(F)C4)C[C@@H]3C)nc3nncn3c2n1C[C@@H]1CCCO1` (stereo partly drawn) [Example 54, 4-((2S,5R)-4-((3,3-Difluorocyclobutyl)(3-(difluoromethyl)-4-fluorophenyl)methyl)-2,5-dimethylpiperazin-1-yl)-2-methyl-1-(((S)-tetrahydrofuran-2-yl)methyl)-1H-[1,2,4]triazolo[3,4-b]purine], the concentration for half-maximal inhibition (IC50) in assay [1] and in assay [2] was not above 20 nM each time.

`Cc1cc(C(C2CC(F)(F)C2)N2C[C@H](C)N(c3nc4nncn4c4c3nc(C)n4C[C@@H]3CCCO3)C[C@H]2C)ccc1C(F)(F)F` (stereo partly drawn) [Example 55, 4-((2S,5R)-4-((3,3-Difluorocyclobutyl)(3-methyl-4-(trifluoromethyl)phenyl)methyl)-2,5-dimethylpiperazin-1-yl)-2-methyl-1-(((S)-tetrahydrofuran-2-yl)methyl)-1H-[1,2,4]triazolo[3,4-b]purine]: the 50% inhibitory concentration (IC50) in assay [1] and in assay [2] was not above 20 nM throughout.

On to `Cc1nc2c(N3C[C@@H](C)N(C(c4cc(F)c(C(F)(F)F)cc4F)C4CC(F)(F)C4)C[C@@H]3C)nc3nncn3c2n1C[C@@H]1CCCO1` (stereo partly drawn) [Example 56, 4-((2S,5R)-4-((2,5-Difluoro-4-(trifluoromethyl)phenyl)(3,3-difluorocyclobutyl)methyl)-2,5-dimethylpiperazin-1-yl)-2-methyl-1-(((S)-tetrahydrofuran-2-yl)methyl)-1H-[1,2,4]triazolo[3,4-b]purine], for which the IC50 in assay [1] and in assay [2] was not above 20 nM throughout.

As for `Cc1nc2c(N3C[C@@H](C)N(C(c4ccc(F)c(Cl)c4F)C4CC(F)(F)C4)C[C@@H]3C)nc3nncn3c2n1C[C@@H]1CCCO1` (stereo partly drawn) [Example 57, 4-((2S,5R)-4-((3-Chloro-2,4-difluorophenyl)(3,3-difluorocyclobutyl)methyl)-2,5-dimethylpiperazin-1-yl)-2-methyl-1-(((S)-tetrahydrofuran-2-yl)methyl)-1H-[1,2,4]triazolo[3,4-b]purine], the IC50 in assay [1] and in assay [2] was not above 20 nM each time.

Turning to `Cc1nc2c(N3C[C@@H](C)N(C(c4ccc(C(F)(F)F)c(Cl)c4)C4CC(F)(F)C4)C[C@@H]3C)nc3nncn3c2n1C[C@@H]1CCCO1` (stereo partly drawn) [Example 58, 4-((2S,5R)-4-((3-Chloro-4-(trifluoromethyl)phenyl)(3,3-difluorocyclobutyl)methyl)-2,5-dimethylpiperazin-1-yl)-2-methyl-1-(((S)-tetrahydrofuran-2-yl)methyl)-1H-[1,2,4]triazolo[3,4-b]purine], the IC50 in assay [1] and in assay [2] was not above 20 nM in each case.

For `Cc1nc2c(N3C[C@@H](C)N(C(c4ccc(Cl)c(C(F)(F)F)c4)C4CC(F)(F)C4)C[C@@H]3C)nc3nncn3c2n1C[C@@H]1CCCO1` (stereo partly drawn) [Example 59, 4-((2S,5R)-4-((4-Chloro-3-(trifluoromethyl)phenyl)(3,3-difluorocyclobutyl)methyl)-2,5-dimethylpiperazin-1-yl)-2-methyl-1-(((S)-tetrahydrofuran-2-yl)methyl)-1H-[1,2,4]triazolo[3,4-b]purine], the IC50 in assay [1] and in assay [2] was not above 20 nM in each case.

As for `Cc1nc2c(N3C[C@@H](C)N(C(c4ccc(Cl)cc4)C4CC(F)(F)C4)C[C@@H]3C)nc3nncn3c2n1C[C@@H]1CCCO1` (stereo partly drawn) [Example 60, 4-((2S,5R)-4-((4-Chlorophenyl)(3,3-difluorocyclobutyl)methyl)-2,5-dimethylpiperazin-1-yl)-2-methyl-1-(((S)-tetrahydrofuran-2-yl)methyl)-1H-[1,2,4]triazolo[3,4-b]purine], the concentration for half-maximal inhibition (IC50) in assay [1] and in assay [2] was not above 20 nM throughout.

In the case of `Cc1nc2c(N3C[C@@H](C)N(C(c4ccc(Br)cc4)C4CC(F)(F)C4)C[C@@H]3C)nc3nncn3c2n1C[C@@H]1CCCO1` (stereo partly drawn) [Example 61, 4-((2S,5R)-4-((4-Bromophenyl)(3,3-difluorocyclobutyl)methyl)-2,5-dimethylpiperazin-1-yl)-2-methyl-1-(((S)-tetrahydrofuran-2-yl)methyl)-1H-[1,2,4]triazolo[3,4-b]purine], the IC50 in assay [1] and in assay [2] was not above 20 nM in each case.

For `Cc1nc2c(N3C[C@@H](C)N(C(c4ccc(F)c(Br)c4)C4CC(F)(F)C4)C[C@@H]3C)nc3nncn3c2n1C[C@@H]1CCCO1` (stereo partly drawn) [Example 62, 4-((2S,5R)-4-((3-Bromo-4-fluorophenyl)(3,3-difluorocyclobutyl)methyl)-2,5-dimethylpiperazin-1-yl)-2-methyl-1-(((S)-tetrahydrofuran-2-yl)methyl)-1H-[1,2,4]triazolo[3,4-b]purine], the half-inhibitory concentration (IC50) in assay [1] and in assay [2] was not above 20 nM in each case.

With `Cc1nc2c(N3C[C@@H](C)N(C(c4ccc(Br)c(F)c4)C4CC(F)(F)C4)C[C@@H]3C)nc3nncn3c2n1C[C@@H]1CCCO1` (stereo partly drawn) [Example 63, 4-((2S,5R)-4-((4-Bromo-3-fluorophenyl)(3,3-difluorocyclobutyl)methyl)-2,5-dimethylpiperazin-1-yl)-2-methyl-1-(((S)-tetrahydrofuran-2-yl)methyl)-1H-[1,2,4]triazolo[3,4-b]purine], the IC50 in assay [1] and in assay [2] was not above 20 nM throughout.

Take `C[C@@H]1CN(c2nc3nncn3c3c2ncn3CCN(C)C)[C@@H](C)CN1C(c1ccc(Br)cc1)C1CC(F)(F)C1` (stereo partly drawn) [Example 65, 2-(4-((2S,5R)-4-((4-Bromophenyl)(3,3-difluorocyclobutyl)methyl)-2,5-dimethylpiperazin-1-yl)-1H-[1,2,4]triazolo[3,4-b]purin-1-yl)-N,N-dimethylethan-1-amine]: the half-inhibitory concentration (IC50) in assay [1] and in assay [2] was not above 20 nM in each case.

`CC[C@@H]1CN(c2nc3nncn3c3c2ncn3CCN(C)C)[C@@H](C)CN1C(c1ccc(Cl)cc1)C1CC(F)(F)C1` (stereo partly drawn) [Example 66, 2-(4-((2S,5R)-4-((4-Chlorophenyl)(3,3-difluorocyclobutyl)methyl)-5-ethyl-2-methylpiperazin-1-yl)-1H-[1,2,4]triazolo[3,4-b]purin-1-yl)-N,N-dimethylethan-1-amine]: the IC50 in assay [1] and in assay [2] was not above 20 nM in each case.

Take `Cc1nc2c(N3C[C@@H](C)N([C@H](c4ccc(C(F)(F)F)cc4)C(C)C)C[C@@H]3C)nc3nncn3c2n1C[C@@H]1CCCO1` [Example 67, 4-((2S,5R)-2,5-Dimethyl-4-((S)-2-methyl-1-(4-(trifluoromethyl)phenyl)propyl)piperazin-1-yl)-2-methyl-1-(((S)-tetrahydrofuran-2-yl)methyl)-1H-[1,2,4]triazolo[3,4-b]purine]: the IC50 in assay [1] and in assay [2] was not above 20 nM throughout.

With `Cc1nc2c(N3C[C@@H](C)N([C@@H](c4ccc(C(F)(F)F)cc4)C(C)C)C[C@@H]3C)nc3nncn3c2n1C[C@@H]1CCCO1` [Example 68, 4-((2S,5R)-2,5-dimethyl-4-((R)-2-methyl-1-(4-(trifluoromethyl)phenyl)propyl)piperazin-1-yl)-2-methyl-1-(((S)-tetrahydrofuran-2-yl)methyl)-1H-[1,2,4]triazolo[3,4-b]purine], the IC50 in assay [1] and in assay [2] was not above 20 nM throughout.

As usually defined, the IC50 is the midpoint of a concentration-inhibition curve.

For the origin of these results see patent US20230399342A1 (Incyte Corporation, priority 2022, published 2023).
